Blank lines part the entries; values can stand above or below the compound they belong to.
Legend:
monoamine oxidase A = molecular target: T1, monoamine oxidase A (Homo sapiens, UniProt P21397); test: Fluorescent enhancement of MAO substrates after incubation with MAO A; format: biochemical; conditions: MAO A 10 μg/ml, substrate 200 μM, 37° C., 2 hours, emission 530 nm
T1 construct: purchased Sigma Aldrich
T1 sequence (P21397 1-527): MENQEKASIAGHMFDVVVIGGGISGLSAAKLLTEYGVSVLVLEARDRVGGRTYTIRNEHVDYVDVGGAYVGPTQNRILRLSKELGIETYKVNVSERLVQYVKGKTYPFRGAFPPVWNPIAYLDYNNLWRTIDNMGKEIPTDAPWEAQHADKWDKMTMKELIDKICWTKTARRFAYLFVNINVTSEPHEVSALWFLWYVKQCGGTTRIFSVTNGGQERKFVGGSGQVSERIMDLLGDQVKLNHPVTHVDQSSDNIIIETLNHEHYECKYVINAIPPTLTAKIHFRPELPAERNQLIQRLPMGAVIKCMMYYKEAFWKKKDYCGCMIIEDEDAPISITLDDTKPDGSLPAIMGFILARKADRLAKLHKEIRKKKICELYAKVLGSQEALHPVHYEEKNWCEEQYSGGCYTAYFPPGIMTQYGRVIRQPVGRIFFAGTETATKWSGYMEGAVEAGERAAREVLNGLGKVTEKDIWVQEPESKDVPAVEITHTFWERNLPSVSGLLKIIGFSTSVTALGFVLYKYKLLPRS
Protocol: (§1) Activity of fluorogenic MAO-HPQ 1, 2 and 3 were determined by the fluorescence intensity after incubations separately with monoamine oxidase A or B at 37° C. for 2 hours. Typically, 5 μl of MAO A and B enzyme solution (final concentration of 10 μg/ml) was incubated with MAO substrates 1, 2 and 3 (final concentration of 200 μM) in a 100 mM Tris-HCl buffer, pH 7.90, 5% glycerol and 5% DMSO. After 2 hours of incubation, the fluorescent enhancement was monitored by Fluorescence spectrophotometer with excitation wavelength at 360 nm.
(§2) The activity of these three probes (MAO-HPQ 1˜3) towards both MAO isozymes were investigated by in vitro fluorescent measurements. All the MAO substrates 1, 2, and 3 were very stable in aqueous solutions and were almost non-fluorescent before MAO enzymatic oxidation due to the alkylation of the 2′-hydroxyl group in the 2-(2′-hydroxy-5′-chlorophenyl)-6-chloro-4(3H)-quinazolinone fluorophore.
(§3) The ratio of fluorescent intensity in the presence and absence of MAO enzymes were used to estimate MAO activities.

monoamine oxidase B = molecular target: T2, monoamine oxidase B (Homo sapiens, UniProt P27338); test: Fluorescent enhancement of MAO substrates after incubation with MAO B; format: biochemical; conditions: MAO B 10 μg/ml, substrate 200 μM, 37° C., 2 hours, emission 530 nm
T2 construct: purchased Sigma Aldrich
T2 sequence (P27338 1-520): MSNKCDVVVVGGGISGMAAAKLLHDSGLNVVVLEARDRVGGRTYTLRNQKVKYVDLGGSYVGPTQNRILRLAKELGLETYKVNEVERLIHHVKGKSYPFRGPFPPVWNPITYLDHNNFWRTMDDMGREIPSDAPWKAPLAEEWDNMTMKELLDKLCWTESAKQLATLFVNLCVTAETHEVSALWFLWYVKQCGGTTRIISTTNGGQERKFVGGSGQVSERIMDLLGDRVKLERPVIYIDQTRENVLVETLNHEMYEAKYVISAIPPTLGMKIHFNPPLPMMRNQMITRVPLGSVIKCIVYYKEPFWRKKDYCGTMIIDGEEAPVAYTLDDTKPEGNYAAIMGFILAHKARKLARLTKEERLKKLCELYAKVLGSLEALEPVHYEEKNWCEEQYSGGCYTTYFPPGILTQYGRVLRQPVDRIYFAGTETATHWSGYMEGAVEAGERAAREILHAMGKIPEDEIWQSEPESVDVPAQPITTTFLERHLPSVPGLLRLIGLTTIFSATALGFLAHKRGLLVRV
Protocol: as §1, §2, §3

[1] = Stability of substrates in aqueous solutions; format: physicochemical; conditions: before MAO enzymatic oxidation
Excerpt: as §2

PC12 cell line = test: Cell viability, standard MTT assay; format: cell-based, Rattus norvegicus; conditions: FIG. 6
Protocol: FIG. 6 illustrates the cell viability of substrate MAO-HPQ 1 (2-(5′-chloro-2′-(3-aminopropoxy)phenyl)-6-chloro-4(3H)-quinazolinone) and 2-(2′-hydroxy-5′-chlorophenyl)-6-chloro-4(3H)-quinazolinone (indicated as HPQ″) in PC12 cell line. As a Control, cells were treated with 5% of DMSO only.
the cytotoxicity activity of MAO-HPQ 1 was evaluated by the standard MTT assay as previously described in Y. H. Choi et al, J. Control. Rel., 1998, 54, 39-48. MAO-HPQ 1 indicates less toxicity and thereby can be used as a probe for real-time imaging of MAO activity in living cells (FIG. 6).

[2] = test system: MAO activity in PC12 cells; test: Imaging of MAO activity in living PC12 cells; format: cell-based, Rattus norvegicus; conditions: 100 μM, 37° C., 1 h
Protocol: (§4) PC12 cell (Rattus norvegicus, adrenal gland) was bought from American Type Culture Collection (ATCC Cat No: CR-1721) and maintained in F-12K medium (ATCC, Manassas Va.) containing 10% FBS (Invitrogen, Burlington, Canada). PC12 cell line were seeded at a density of 2×10^5 in a 35 mm diameter μ-dish plastic bottom (ibidi GmbH, Germany) and cultured for 2 days with Nerve Growth Factor (2.5S, 30 ng/mL, Invitrogen, Carlsbad, Calif.)^[2] in Dulbecco's Modified Eagle Medium (DMEM 1×, without phenol red, Gibco/Invitrogen, Carlsbad, Calif.) containing 4.5 g/L D-glucose, 2 mM GlutaMax-1 (Invitrogen). Control C6 glioma cell line was bought from American Type Culture Collection (ATCC Cat No.: CCL-107) and cultured with the same protocol as PC12 cell lines). After 2 days of culture, the live PC12 and C6 glioma cell lines were washed twice with DMEM. The live cells were then treated separately with 100 μM of MAO-HPQ 1 in DMEM (containing 0.5% of DMSO) and incubated for 1 hour in an incubator at 37° C. The cells were washed twice with Hank's Balanced Salt solution (Sigma). The fluorescence imaging was acquired with a Confocal fluorescence microscope (Nikon, Eclipse TE2000-E) using a super high pressure mercury lamp (Nikon, TE2-PS100W) with excitation filter: 360/40 nm; emission filter: 535/40 nm.
(§5) PC12 cell line was chosen owing to its high expression of MAO. […]

C6 glioma cells = test: Imaging in living C6 glioma cells (negative control, no MAO expression); format: cell-based; conditions: 100 μM, 37° C., 1 h
Protocol: as §4, §5

[3] = test system: MAO activity in PC12 cells; test: Inhibition imaging: PC12 cells pre-treated with inhibitor, then MAO-HPQ 1; format: cell-based, Rattus norvegicus; conditions: 100 μM inhibitor pre-treatment, then 100 μM MAO-HPQ 1, 37° C., 1 h
Protocol: In the inhibition investigation, the live PC12 cell lines were washed twice with DMEM and pre-treated separately with 100 μM Clorgyline and Pargyline in DMEM for 1 hour in an incubator at 37° C. MAO-HPQ 1 was then added to the μ-dish with the final concentration of 100 μM and incubated for another 1 hour at 37° C. The cells were then washed twice with Hank's Balanced Salt solution. The fluorescence imaging was acquired with the Confocal fluorescence microscope.
Further imaging investigations were conducted by utilizing two commonly used inhibitors: Clorgyline for MAO A and Pargyline for MAO B. The PC12 cells were pre-treated separately with 100 μM of MAO A inhibitor clorgyline and MAO B inhibitor pargyline, and then incubated with 100 μM of MAO-HPQ probe 1 at 37° C. for 1 h. […] This is in accordance with the in vitro enzyme inhibition tests (FIG. 5). MAO-HPQ 1 indicates less toxicity (FIG. 6) and thereby can be used as a new probe for real-time imaging of MAO activity in living cells.

Structure (SMILES): CN(C)CCCOc1ccc(Cl)cc1-c1nc2ccc(Cl)cc2c(=O)[nH]1 [MAO-HPQ 3, 2-(5′-chloro-2′-(3-(N,N′-dimethylamino)propoxy)phenyl)-6-chloro-4(3H)-quinazolinone]
maximum fluorescent enhancement (ratio of fluorescent intensity in the presence and absence of MAO enzyme) (monoamine oxidase A): 5 fold
maximum fluorescent enhancement (ratio of fluorescent intensity in the presence and absence of MAO enzyme) (monoamine oxidase B): 7 fold
stability in aqueous solutions [1]: very stable

Structure (SMILES): C#CCN(C)CCCOc1ccc(Cl)cc1Cl [clorgyline, Clorgyline]
fluorescence of PC12 cells pre-treated with inhibitor (MAO inhibition in living cells) [3]: no obvious fluorescence

Structure (SMILES): C#CCN(C)Cc1ccccc1 [pargyline, Pargyline]
fluorescence of PC12 cells pre-treated with inhibitor (MAO inhibition in living cells) [3]: strong fluorescence similar to the imaging result without inhibitor treatment

Continued, in another order:

maximum fluorescent enhancement (ratio of fluorescent intensity in the presence and absence of MAO enzyme) (monoamine oxidase A): 15 fold
maximum fluorescent enhancement (ratio of fluorescent intensity in the presence and absence of MAO enzyme) (monoamine oxidase B): 20 fold
stability in aqueous solutions [1]: very stable
Structure (SMILES): CNCCCOc1ccc(Cl)cc1-c1nc2ccc(Cl)cc2c(=O)[nH]1 [MAO-HPQ 2, 2-(5′-chloro-2′-(3-(N-methylamino)propoxy)phenyl)-6-chloro-4(3H)-quinazolinone]

maximum fluorescent enhancement (ratio of fluorescent intensity in the presence and absence of MAO enzyme) (monoamine oxidase A): 307 fold
maximum fluorescent enhancement (ratio of fluorescent intensity in the presence and absence of MAO enzyme) (monoamine oxidase B): 300 fold
stability in aqueous solutions [1]: very stable
Structure (SMILES): NCCCOc1ccc(Cl)cc1-c1nc2ccc(Cl)cc2c(=O)[nH]1 [MAO-HPQ 1, 2-(5′-chloro-2′-(3-aminopropoxy)phenyl)-6-chloro-4(3H)-quinazolinone]
cytotoxicity activity (MTT) (PC12 cell line): less toxicity
fluorescence in live cell imaging [2]: bright fluorescence signals
fluorescence in live cell imaging (C6 glioma cells): little
